Source: patent US9533965B2, “2-arylbenzofuran-7-formamide compounds, preparation method and use thereof” (SHANGHAI INSTITUTE OF MATERIA MEDICA, CHINESE ACADEMY OF …, priority 2012, dated 2017)
Values joined by “and” are separate entries in the source; they are usually repeats but may differ in a detail not shown here. Equal entries are not always repeated. Where two headings read alike, the source gives them in different places.

Experiments:
wild type cell line V79 = experiment: In vitro cell proliferation inhibition (MTT), V79 cells; assay type: cell-based, Chinese hamster; settings: Cricetulus griseus, read-out: V79 cell IC50
[1] = system: Chinese hamster lung fibroblast cell line VC8 (BRCA2−/−); experiment: In vitro cell proliferation inhibition (MTT), VC8 cells; assay type: cell-based; settings: read-out: VC8 cell IC50
[2] = compound during phase II clinical trials; cited from earlier work
PARP1 = PARP1 (Homo sapiens, UniProt P09874); experiment: PARP1 enzymatic inhibition at molecular levels (ELISA); settings: ELISA IC50, PARP1 enzyme, molecular level
Sequence of PARP1 (P09874 whole entry): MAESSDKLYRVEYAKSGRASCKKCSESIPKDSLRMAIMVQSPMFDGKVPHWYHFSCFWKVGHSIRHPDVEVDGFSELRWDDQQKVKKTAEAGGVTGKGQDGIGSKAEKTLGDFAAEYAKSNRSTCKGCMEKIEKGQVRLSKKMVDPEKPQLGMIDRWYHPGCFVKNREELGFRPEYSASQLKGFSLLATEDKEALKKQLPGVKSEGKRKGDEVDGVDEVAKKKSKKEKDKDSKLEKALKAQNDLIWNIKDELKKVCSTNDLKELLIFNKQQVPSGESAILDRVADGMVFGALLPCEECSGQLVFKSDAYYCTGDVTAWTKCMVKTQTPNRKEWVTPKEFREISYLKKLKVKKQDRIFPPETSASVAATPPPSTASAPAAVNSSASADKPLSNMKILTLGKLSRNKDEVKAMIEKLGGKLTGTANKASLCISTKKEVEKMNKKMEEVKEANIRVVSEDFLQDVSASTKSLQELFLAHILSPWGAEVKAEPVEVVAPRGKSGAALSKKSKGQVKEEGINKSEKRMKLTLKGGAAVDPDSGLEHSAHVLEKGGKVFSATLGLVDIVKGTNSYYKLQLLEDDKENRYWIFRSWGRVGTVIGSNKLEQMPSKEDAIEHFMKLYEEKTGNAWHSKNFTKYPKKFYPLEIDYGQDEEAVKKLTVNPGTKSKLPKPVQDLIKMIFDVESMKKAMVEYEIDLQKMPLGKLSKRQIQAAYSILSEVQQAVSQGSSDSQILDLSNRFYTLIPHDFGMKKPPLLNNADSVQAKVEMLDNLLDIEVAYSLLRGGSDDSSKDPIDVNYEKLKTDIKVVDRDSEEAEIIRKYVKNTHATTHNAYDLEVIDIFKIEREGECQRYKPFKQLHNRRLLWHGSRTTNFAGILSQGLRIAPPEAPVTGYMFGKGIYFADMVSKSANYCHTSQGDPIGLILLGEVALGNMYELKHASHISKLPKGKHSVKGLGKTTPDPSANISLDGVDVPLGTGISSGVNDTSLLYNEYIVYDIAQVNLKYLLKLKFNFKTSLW

[3] = Cricetulus griseus, V-C8, 72 h, MTT, 72 h, VC8 (BRCA2−/−)

Structure (SMILES)	IC50 (PARP1)	IC50 (wild type cell line V79; MTT, 72 h, wild type V79)	IC50 [1, 3]	IC50 ([1]; MTT, 72 h, VC8 (BRCA2−/−))	IC50 (wild type cell line V79; V79, 72 h)	IC50 ([1]; Cricetulus griseus, V-C8, 72 h)	oral bioavailability of rats [2]
NC(=O)c1cc(F)cc2cc(-c3ccc(CN4CCCC4)cc3)oc12 [5f, 5-fluoro-2-{4-[(pyrrolidin-1-yl)methyl]phenyl}benzofuran-7-carboxamide]		> 10 µM	3.36 µM	2.62 µM			
O=C(c1cc(Cc2n[nH]c(=O)c3ccccc23)ccc1F)N1CCN(C(=O)C2CC2)CC1 [AZD2281, Olaparib, reference compound]					> 10 µM	0.82 ± 0.33 µM	11.1%
CNCc1ccc(-c2cc3cc(F)cc(C(N)=O)c3o2)nc1 [compound 5d, 5-fluoro-2-{5-[(methylamino)methyl]-2-pyridyl}benzofuran-7-carboxamide]	0.023 µM and 0.0279 µM and 0.058 µM	> 10 µM	3.27 µM	1.74 µM			
NC(=O)c1cc(F)cc2cc(-c3ccc(CN4CCCCC4)cc3)oc12 [compound 5h, 5-fluoro-2-{4-[(piperidin-1-yl)methyl]phenyl}benzofuran-7-carboxamide]		> 10 µM	2.6 µM	2.01 µM			
NC(=O)c1cc(F)cc2cc(-c3ccc(CN4CCOCC4)cc3)oc12 [compound 5j, 5-fluoro-2-{4-[(1-morpholinyl)methyl]phenyl}benzofuran-7-carboxamide]		> 10 µM					
CNCc1ccc(-c2cc3cc(F)cc(C(N)=O)c3o2)c(F)c1 [compound 5p, 5-fluoro-2-{4-[(methylamino)methyl]-2-fluorophenyl}benzofuran-7-carboxamide]	0.022 µM and 0.0089 µM and 0.04 µM	> 10 µM	1.36 µM	1.62 µM			
CN(C)Cc1ccc(-c2oc3c(C(N)=O)cc(F)cc3c2Cl)cc1 [compound 7a, 3-chloro-5-fluoro-2-{4-[(dimethylamino)methyl]phenyl}benzofuran-7-carboxamide]	9.25 µM						

More lines, main results first:

IC50 (PARP1)	Structure (SMILES)	IC50 (wild type cell line V79; MTT, 72 h, wild type V79)	IC50 [1, 3]	IC50 ([1]; MTT, 72 h, VC8 (BRCA2−/−))	IC50 (wild type cell line V79; V79, 72 h)	IC50 ([1]; Cricetulus griseus, V-C8, 72 h)	oral bioavailability of rats [2]
0.0118 ± 0.0089 µM	CN(C)Cc1ccc(-c2cc3cc(F)cc(C(N)=O)c3o2)cc1 [compound 5a, 5-fluoro-2-{4-[(dimethylamino)methyl]phenyl}benzofuran-7-carboxamide]	> 10 µM	0.75 ± 0.1 µM				
0.037 µM and 0.0342 µM and 0.072 µM	CNCc1ccc(-c2cc3cc(F)cc(C(N)=O)c3o2)cn1 [compound 5c, 5-fluoro-2-{6-[(methylamino)methyl]-3-pyridyl}benzofuran-7-carboxamide]	> 10 µM					
0.0148 µM and 0.0208 µM and 0.074 µM	CNCc1ccc(-c2cc3cc(F)cc(C(N)=O)c3o2)cc1F [compound 5e, 5-fluoro-2-{4-[(methylamino)methyl]-3-fluorophenyl}benzofuran-7-carboxamide]	> 10 µM	2.08 µM	1.51 µM			
0.083 µM and 0.105 µM and 0.187 µM	CN1CCN(Cc2ccc(-c3cc4cc(F)cc(C(N)=O)c4o3)cc2)CC1 [compound 5g, 5-fluoro-2-{4-[(4-methyl-1-piperazino)methyl]phenyl}benzofuran-7-carboxamide]	> 10 µM	2.08 µM	2.14 µM			
0.104 µM and 0.101 µM and 0.207 µM	CN1CCCN(Cc2ccc(-c3cc4cc(F)cc(C(N)=O)c4o3)cc2)CC1 [compound 5i, 5-fluoro-2-{4-[(4-methyl-1-homopiperazino)methyl]phenyl}benzofuran-7-carboxamide]	> 10 µM					
1.06 µM and 2.06 µM and 1.52 µM	NC(=O)c1cc(F)cc2cc(-c3ccc(CN4CCSCC4)cc3)oc12 [compound 5k, 5-fluoro-2-{4-[(thiomorpholino)methyl]phenyl}benzofuran-7-carboxamide]	> 10 µM	> 10 µM				
0.182 µM and 0.107 µM and 0.393 µM	NC(=O)c1cc(F)cc2cc(-c3ccc(CNC4CCNCC4)cc3)oc12 [compound 5l, 5-fluoro-2-{4-[(4-piperidyl)aminomethyl]phenyl}-benzofuran-7-carboxamide]	> 10 µM	8.31 µM	8.22 µM			
0.049 µM and 0.0095 µM and 0.017 µM	NC(=O)c1cc(F)cc2cc(-c3ccc(CN[C@@H]4CCOC4)cc3)oc12 [compound 5m, (R)-5-fluoro-2-{4-[(3-tetrahydrofurylamino)methyl]phenyl}benzofuran-7-carboxamide]	> 10 µM	1.15 µM	1.18 µM			
0.018 µM and 0.031 µM and 0.073 µM	NC(=O)c1cc(F)cc2cc(-c3ccc(CNC4CC4)cc3)oc12 [compound 5n, 5-fluoro-2-[4-(cyclopropylaminomethyl)phenyl]benzofuran-7-carboxamide]	> 10 µM					
0.032 µM and 0.0188 µM and 0.025 µM	CC(C)NCc1ccc(-c2cc3cc(F)cc(C(N)=O)c3o2)cc1 [compound 5o, 5-fluoro-2-[4-(isopropylaminomethyl)phenyl]benzofuran-7-carboxamide]	> 10 µM	1.09 µM	0.941 µM			
